The source of these data is DBAASP.

The structures appear in SMILES notation. Converted amounts (≈) assume the structure as drawn.

Some test systems named below: Escherichia coli JM109; Pseudomonas aeruginosa; Staphylococcus aureus; Aspergillus fumigatus; Bacillus megaterium MA; Candida albicans; Micrococcus luteus A270; Escherichia coli O157.
Experiment in all cases: ≥ marks a high value that may be exact or a test limit, other limits are often not marked, values filed in µg/mL are converted to µM
In experiment [1] the test system is Staphylococcus aureus ATCC 6538P.
In experiment [2] the test system is Bacillus subtilis ATCC 6633.
The subject of experiment [3] is Candida albicans ATCC 36232.
For experiment [4], the system named is Corynebacterium diphtheriae ATCC 8024.
The subject of experiment [5] is Escherichia coli ATCC 2592.
Experiment [6] relates to Micrococcus luteus ATCC 9341.
Experiment [7] has as its system Pseudomonas aeruginosa ATCC 9027.
The test system of experiment [8] is Shigella flexneri ATCC 203.
Experiment [9] relates to Staphylococcus aureus ATCC 6538.
Experiment [10] concerns Staphylococcus epidermidis ATCC 12228.
Experiment [11] concerns Pseudomonas aeruginosa PAK.
Experiment [12] has as its system Streptococcus gordonii Challis DL1.
The subject of experiment [13] is Streptococcus mitis ATCC 903.
Experiment [14] relates to Streptococcus mutans UA159.
Experiment [15] relates to Streptococcus sanguinis NY101.
Experiment [16] relates to Alternaria brassicicola MUCL 20297.
Experiment [17] deals with Fusarium culmorum MUCL 30162.
The test system of experiment [18] is Fusarium haematococcum 160.2.2.
In experiment [19] the test system is Fusarium oxysporum MUCL 909.
The test system of experiment [20] is Neurospora crassa CBS 327-54.
For experiment [21], the system named is Saccharomyces cerevisiae TGY 481 pJM600.
The test system of experiment [22] is Bacillus cereus ATCC 11778.
For experiment [23], the system named is Enterococcus faecalis ATCC 29212.
Experiment [24] has as its system Escherichia coli ATCC 25922.
The subject of experiment [25] is Escherichia coli ATCC 35218.
Experiment [26] has as its system Salmonella enterica subsp. arizonae ATCC 13314.
In experiment [27] the test system is Streptococcus pyogenes ATCC 19615.

A word on the MIC: it is the lowest concentration that inhibits growth of the organism. Lower therefore signals a more susceptible organism. For the compound `CC[C@H](C)[C@H](NC(=O)[C@H](C)NC(=O)[C@H](CC(C)C)NC(=O)[C@H](Cc1c[nH]c2ccccc12)NC(=O)[C@H](CC(C)C)NC(=O)[C@H](C)N)C(=O)N[C@@H](CCCN=C(N)N)C(=O)N[C@@H](CCCN=C(N)N)C(=O)N[C@@H](CCCN=C(N)N)C(N)=O` [ALWLAIRRR], the MIC against Escherichia coli JM109 worked out at 2.6 µM (≈ 3 µg/mL); with Pseudomonas aeruginosa, 3.46 µM (≈ 4 µg/mL); in [1], 1.73 µM (≈ 2 µg/mL); in the experiment on Staphylococcus aureus, 27.7 µM (≈ 32 µg/mL).
For `CC(C)[C@H](NC(=O)[C@H](CS)NC(=O)[C@@H](NC(=O)[C@H](CCCN=C(N)N)NC(=O)[C@H](CCCCN)NC(=O)CNC(=O)[C@H](CC(N)=O)NC(=O)[C@@H](N)CS)C(C)C)C(=O)N[C@@H](CS)C(=O)N[C@@H](CCCN=C(N)N)C(N)=O` [CNGKRVCVCR], the minimum inhibitory concentration (MIC) came out at 13.2 µM (≈ 15 µg/mL) in experiment [2]; 13.2 µM (≈ 15 µg/mL) in experiment [3]; 6.59 µM (≈ 7.49 µg/mL) in experiment [4]; 6.59 µM (≈ 7.49 µg/mL) in [5]; 11 µM (≈ 12.5 µg/mL) in [6]; 44 µM (≈ 50 µg/mL) in experiment [7]. Further, the MIC was 26.4 µM (≈ 30 µg/mL) in experiment [8], 26.4 µM (≈ 30 µg/mL) in [9], more than 87.9 µM in the experiment with Staphylococcus aureus and 13.2 µM (≈ 15 µg/mL) in experiment [10].
With `CC[C@H](C)[C@H](NC(=O)[C@H](Cc1ccccc1)NC(=O)[C@H](Cc1cnc[nH]1)NC(=O)[C@H](CCCCN)NC(=O)[C@@H](NC(=O)[C@@H](N)Cc1ccccc1)[C@@H](C)CC)C(=O)N[C@@H](Cc1cnc[nH]1)C(=O)N[C@@H](CCCN=C(N)N)C(=O)N[C@@H](Cc1ccccc1)C(=O)N[C@@H](CO)C(=O)N[C@@H](C)C(=O)N[C@H](C(=O)N[C@@H](CCCN=C(N)N)C(=O)N[C@@H](Cc1c[nH]c2ccccc12)C(=O)N[C@@H](CCCN=C(N)N)C(=O)N[C@@H](Cc1c[nH]c2ccccc12)C(=O)N[C@@H](CCCN=C(N)N)C(=O)N[C@@H](Cc1c[nH]c2ccccc12)C(=O)N[C@@H](Cc1ccccc1)C(N)=O)[C@@H](C)O` [FIKHFIHRFSATRWRWRWF], the minimal inhibitory concentration (MIC) in experiment [11] was 23.3 µM (≈ 62.5 µg/mL); against Staphylococcus aureus, 46.7 µM (≈ 125 µg/mL); in experiment [12], 11.9 µM (≈ 32 µg/mL); in experiment [13], 5.97 µM (≈ 16 µg/mL); in experiment [14] it was 2.99 µM (≈ 8 µg/mL); in experiment [15] it was 11.9 µM (≈ 32 µg/mL).
Consider `CC[C@H](C)[C@H](NC(=O)[C@H](CCCN=C(N)N)NC(=O)[C@H](CCC(=O)O)NC(=O)[C@H](CC(=O)O)NC(=O)CNC(=O)[C@H](CCCN=C(N)N)NC(=O)[C@H](CC(C)C)NC(=O)[C@@H](NC(=O)[C@H](CCC(=O)O)NC(=O)[C@H](Cc1ccccc1)NC(=O)[C@@H]1CSSC[C@H](NC(=O)[C@H](CCCCN)NC(=O)[C@H](CCSC)NC(=O)[C@@H](NC(=O)[C@H](CCC(=O)O)NC(=O)[C@@H](NC(=O)[C@H](CC(=O)O)NC(=O)CNC(=O)[C@H](CCCCN)NC(=O)[C@H](CC(N)=O)NC(=O)[C@H](CCSC)NC(=O)[C@@H]2CCCN2C(=O)[C@H](CO)NC(=O)[C@H](CC(N)=O)NC(=O)[C@@H](NC(=O)[C@@H]2CCCN2C(=O)[C@@H](N)CC(C)C)C(C)C)[C@@H](C)O)C(C)C)C(=O)N[C@@H]([C@@H](C)CC)C(=O)N[C@@H](C(C)C)C(=O)N[C@@H](CCC(=O)O)C(=O)N[C@@H](C(C)C)C(=O)N[C@@H]([C@@H](C)CC)C(=O)N[C@@H](CO)C(=O)N[C@@H](CC(=O)O)C(=O)N[C@@H]([C@@H](C)O)C(=O)N[C@@H](CC(C)C)C(=O)N[C@@H](CO)C(=O)N[C@@H](CCCCN)C(=O)N2CCC[C@H]2C(=O)N[C@@H](CO)C(=O)N2CCC[C@H]2C(=O)N[C@@H](CCSC)C(=O)N2CCC[C@H]2C(=O)N[C@@H](C(C)C)C(=O)N[C@@H](CO)C(=O)N[C@@H](CCCCN)C(=O)N[C@@H](CCC(=O)O)C(=O)N1)[C@@H](C)O)C(=O)N[C@@H](CC(C)C)C(=O)N[C@@H](CO)C(=O)N[C@H](C(=O)N[C@@H](CC(C)C)C(=O)N[C@@H](CCCN=C(N)N)C(=O)N[C@@H](Cc1cnc[nH]1)C(=O)N[C@@H](CCC(N)=O)C(=O)N[C@@H](CC(N)=O)C(=O)N[C@@H](CC(C)C)C(=O)N[C@@H](CC(C)C)C(=O)N[C@@H](CCCCN)C(=O)N[C@@H](CCC(=O)O)C(=O)N[C@@H](CC(C)C)C(=O)N[C@@H](CCC(N)=O)C(=O)N[C@@H](CC(=O)O)C(=O)N[C@@H](CC(C)C)C(=O)N[C@@H](C)C(=O)N[C@@H](CC(C)C)C(=O)N[C@@H](CCC(N)=O)C(=O)NCC(=O)N[C@@H](C)C(=O)N[C@@H](CCCCN)C(=O)N[C@@H](CCC(=O)O)C(=O)N[C@@H](CCCN=C(N)N)C(=O)N[C@H](C(=O)N[C@@H](Cc1cnc[nH]1)C(=O)N[C@@H](CCC(N)=O)C(=O)N[C@@H](CCC(N)=O)C(=O)O)[C@@H](C)O)[C@@H](C)CC` [LPVNSPMNKGDTEVMKCIVEVISDTLSKPSPMPVSKECFETLRGDERILSILRHQNLLKELQDLALQGAKERTHQQ], for which the minimal inhibitory concentration (MIC) in experiment [16] is 3 µM (≈ 25.8 µg/mL); against Aspergillus fumigatus it was 5 µM (≈ 42.9 µg/mL); in the experiment on Bacillus megaterium MA, 0.2 µM (≈ 1.72 µg/mL); in the experiment with Candida albicans it was 10 µM (≈ 85.8 µg/mL); in experiment [17], 1 µM (≈ 8.58 µg/mL); in experiment [18] it was 1 µM (≈ 8.58 µg/mL). Besides, the minimum inhibitory concentration (MIC) in [19] was found to be 10 µM (≈ 85.8 µg/mL); against Micrococcus luteus A270 it was 2 µM (≈ 17.2 µg/mL); in [20] it was 3 µM (≈ 25.8 µg/mL); in [21], 10 µM (≈ 85.8 µg/mL).
`CC(C)C[C@H](NC(=O)[C@H](CCC(N)=O)NC(=O)[C@H](Cc1ccc(O)cc1)NC(=O)[C@H](CCCN=C(N)N)NC(=O)CNC(=O)[C@H](C)NC(=O)[C@H](C)NC(=O)[C@@H](NC(=O)[C@H](CO)NC(=O)[C@H](Cc1ccc(O)cc1)NC(=O)[C@@H](NC(=O)[C@H](CCCCN)NC(=O)[C@H](Cc1ccc(O)cc1)NC(=O)[C@H](CCCN=C(N)N)NC(=O)[C@@H]1CCCN1C(=O)[C@H](CC(C)C)NC(=O)[C@H](Cc1ccc(O)cc1)NC(=O)[C@@H](NC(=O)[C@H](CCCCN)NC(=O)[C@H](CC(C)C)NC(=O)[C@H](CCCN=C(N)N)NC(=O)[C@@H]1CCCN1)C(C)C)C(C)C)[C@@H](C)O)C(=O)N[C@@H](CC(C)C)C(=O)N[C@@H](CO)C(=O)N[C@@H](CCCN=C(N)N)C(=O)N[C@@H](Cc1ccc(O)cc1)C(=O)N[C@@H](Cc1c[nH]c2ccccc12)C(N)=O` [PRLKVYLPRYKVYSTAAGRYQLLSRYW]: the minimal inhibitory concentration (MIC) in experiment [22] is not below 75 µM; in [23], 150 µM (≈ 502 µg/mL); in experiment [24], 150 µM (≈ 502 µg/mL); in [25], not below 150 µM; against Escherichia coli O157, not below 150 µM; in experiment [6], 19 µM (≈ 63.6 µg/mL). Also, the MIC in [7] is more than 150 µM; in experiment [26] it was not below 150 µM; in experiment [10], 150 µM (≈ 502 µg/mL); in experiment [27] it was not below 38 µM.
